Reference: patent publication US4496655A, “Process for the production of tyramine oxidase” (Toyo Jozo Kabushiki Kaisha, priority 1981, dated 1985)
Where two headings read alike, the source gives them in different places.

What was measured:
tyramine oxidase [1] = test: Effect of various substances on the activity of tyramine oxidase; assay type: biochemical, Arthrobacter sp. B-0813
Procedure: (§1) An enzyme solution (0.05 ml) is added to a reaction mixture (0.5 ml) consisting of the following, and the volume is increased to 1.0 ml by adding water and the mixture is incubated at 37° C. for 10 minutes.
(§2) Water (0.1 ml) is added in place of enzyme solution as a control. The reaction mixture is measured at 490 nm.
(§3) Enzyme activity is calculated by the following equation: [formula] wherein Δ490 nm is the absorption value at Δ490 nm for 10 minutes, and f is the dilution ratio.

tyramine oxidase [2] = test: Substrate specificity of tyramine oxidase; assay type: biochemical, Arthrobacter sp. B-0813; parameters: Relative activity (%) as substrate: concentration or dose not given beside the values; settings: for Relative activity (%) as substrate: substrate added to the reaction mixture, tyramine = 100.0
Procedure: as §1, §2, §3
Substrate specificity was measured by adding various substrates to the reaction mixture.

[3] = system: Arthrobacter sp. B-0813 FERM-P No. 6240; assay type: cell-based; settings: arthrobacter culture
Procedure: A medium (100 ml, pH 7.5) comprising by weight soybean oil 0.8%, corn steep liquor 1.0%, meat extract 0.1%, polypeptone 1.0%, NaCl 0.3% and β-phenylethylamine 0.15% was put into a 500 ml Erlenmeyer flask and sterilized at 120° C. for 20 minutes. Arthrobacter sp. B-0813 FERM-P No. 6240 was inoculated into the medium and the mixture was cultured at 30° C. for 20 hours to prepare a seed culture. The medium containing the same components (20 lit.) together with added 0.2% of antifoam agent (silicone AF-145), (Asahi Chem.) was poured into a 30 lit. jar fermenter and the above two flasks of seed culture were inoculated therein, then the medium was aerobically cultured with agitation at 250 rpm and with 20 lit./min. aeration for 20 hours. The tyramine oxidase activity of the cultured broth was 1.3 U/ml.
When tyramine or butylamine was added to the medium, a more than 200-fold increase in the yield of enzyme was observed as compared with no addition of these amines. The amount of such addition is 0.1-0.2%, preferably 0.15%. The culturing temperature is generally 25°-35° C. and the culturing time is 10-30 hours.

tyramine oxidase [4] = test: Km-value of tyramine oxidase; assay type: biochemical, Arthrobacter sp. B-0813; settings: substrate tyramine
Procedure: as §1

[5] = amount added 5 mM, control (no addition) = 100.0
[6] = amount added 0.025 mM, control (no addition) = 100.0

[N-]=[N+]=[N-].[Na+] [NaN3]
Relative Activity (%) (tyramine oxidase [1]; [5]): 98.3%

Triton X-100
Relative Activity (%) (tyramine oxidase [1]; [6]): 96.7%

O=C(O)CN(CCN(CC(=O)O)CC(=O)O)CC(=O)O [EDTA]
Relative Activity (%) (tyramine oxidase [1]): 100.0%

NCCc1ccc(Cl)cc1 [p-chlorophenylethylamine]
Activity of the enzyme on the substrate (in words) (tyramine oxidase [2]): activity | Relative activity (%) as substrate (tyramine oxidase [2]): 47.9%

CCCCCCCCCCCCCCCC[N+](C)(C)C.[Cl-] [Cetyltrimethylammonium chloride]
Relative Activity (%) (tyramine oxidase [1]; [6]): 0.0%

CCCCN [n-butylamine]
Activity of the enzyme on the substrate (in words) (tyramine oxidase [2]): activity | Relative activity (%) as substrate (tyramine oxidase [2]): 45.3% | Increase in the yield of enzyme compared with no addition of these amines [3]: more than 200 fold

Cl.N [NH4 Cl]
Relative Activity (%) (tyramine oxidase [1]; [5]): 96.6%

Cc1cc2nc3c(=O)[nH]c(=O)nc-3n(C[C@H](O)[C@H](O)[C@H](O)COP(=O)(O)O)c2cc1C [FMN, flavin mononucleotide]
Effect of addition on the activity of the enzyme (in words) (tyramine oxidase [1]): increases the activity | Relative Activity (%) (tyramine oxidase [1]; amount added 0.01 mM, control (no addition) = 100.0): 108.8%

CCN [Ethylamine]
Relative activity (%) as substrate (tyramine oxidase [2]): 0.0%

Laurylbenzene sulfonate [Laurylbenzene sulfonate (LBS)]
Relative Activity (%) (tyramine oxidase [1]; amount added 0.05 mM, control (no addition) = 100.0): 63.9%

O=C(O)c1cc[c]([Hg][Cl])cc1 [p-chloromercuribenzoate (PCMB), p-chloromercuribenzoate]
Relative Activity (%) (tyramine oxidase [1]; amount added 0.2 mM, control (no addition) = 100.0): 79.3%

NCCc1ccccc1 [β-phenylethylamine]
Activity of the enzyme on the substrate (in words) (tyramine oxidase [2]): activity | Relative activity (%) as substrate (tyramine oxidase [2]): 54.7%

NCc1ccccc1 [Benzylamine]
Relative activity (%) as substrate (tyramine oxidase [2]): 0.0%

Cc1cc2nc3c(=O)[nH]c(=O)nc-3n(C[C@H](O)[C@H](O)[C@H](O)COP(=O)(O)OP(=O)(O)OC[C@H]3O[C@@H](n4cnc5c(N)ncnc54)[C@H](O)[C@@H]3O)c2cc1C [FAD]
Relative Activity (%) (tyramine oxidase [1]; amount added 0.1 mM, control (no addition) = 100.0): 75.4%

[Ca+2].[Cl-].[Cl-] [CaCl2]
Relative Activity (%) (tyramine oxidase [1]; [5]): 86.2%

[Cl-].[Li+] [LiCl]
Relative Activity (%) (tyramine oxidase [1]; [5]): 82.8%

CN [Methylamine]
Relative activity (%) as substrate (tyramine oxidase [2]): 0.0%

NCCc1ccc(O)cc1 [Tyramine, p-hydroxyphenylethylamine]
Activity of the enzyme on the substrate (in words) (tyramine oxidase [2]): specific activity | Relative activity (%) as substrate (tyramine oxidase [2]): 100.0% | Km (tyramine oxidase [4]): 27 µM | Increase in the yield of enzyme compared with no addition of these amines [3]: more than 200 fold

[Na+].[Na+].[O]=[Mo](=[O])([O-])[O-] [NaMoO4]
Relative Activity (%) (tyramine oxidase [1]; [5]): 39.7%

[Cl-].[Cl-].[Co+2] [CoCl2]
Relative Activity (%) (tyramine oxidase [1]; [5]): 86.2%

[Ba+2].[Cl-].[Cl-] [BaCl2]
Relative Activity (%) (tyramine oxidase [1]; [5]): 96.6%

[Cl][Mn][Cl] [MnCl2]
Relative Activity (%) (tyramine oxidase [1]; [5]): 82.8%
